Drawing on patent US20260297070A1, “CYCLIC [COMPOUND LEFT OUT] WRN INHIBITORS” (Nimbus Wadjet, Inc., priority 2023, published 2026), this text covers IC50 for 26 compounds.

Bounds are passed on as bounds.

For the assay, the target named is T1, human Werner helicase (WRN-BV08, Uniprot Q14191, amino acids 517-1235 with L1074F point mutation) (Homo sapiens, UniProt Q14191, L1074F).
T1 construct: Uniprot Q14191, amino acids 517-1235 with L1074F point mutation; TEV-cleavable 8×His (C, cleaved yes); made in house; host or cells: Sf9 insect cells (baculovirus)
T1 sequence (Q14191 with tags, fused parts or gaps L1074F limits assumed): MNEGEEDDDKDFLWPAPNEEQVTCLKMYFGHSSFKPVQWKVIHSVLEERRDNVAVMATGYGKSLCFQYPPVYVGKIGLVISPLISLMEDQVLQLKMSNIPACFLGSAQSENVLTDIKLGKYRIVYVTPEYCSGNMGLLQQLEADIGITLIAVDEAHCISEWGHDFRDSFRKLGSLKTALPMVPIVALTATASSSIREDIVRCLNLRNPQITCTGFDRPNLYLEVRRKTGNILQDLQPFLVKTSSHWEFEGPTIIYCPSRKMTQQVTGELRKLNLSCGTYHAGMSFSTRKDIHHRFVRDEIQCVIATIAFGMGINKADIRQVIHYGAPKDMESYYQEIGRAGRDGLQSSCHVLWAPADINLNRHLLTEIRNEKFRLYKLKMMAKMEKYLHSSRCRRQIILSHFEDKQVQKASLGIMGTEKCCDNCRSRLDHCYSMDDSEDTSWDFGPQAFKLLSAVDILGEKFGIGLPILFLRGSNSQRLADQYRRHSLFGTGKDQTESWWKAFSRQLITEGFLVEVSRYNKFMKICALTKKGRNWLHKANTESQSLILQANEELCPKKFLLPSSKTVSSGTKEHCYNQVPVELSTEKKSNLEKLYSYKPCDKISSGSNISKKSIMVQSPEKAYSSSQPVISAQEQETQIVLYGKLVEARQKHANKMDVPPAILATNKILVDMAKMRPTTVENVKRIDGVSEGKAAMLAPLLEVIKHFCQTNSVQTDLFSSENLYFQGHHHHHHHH
Put plainly: WRN (BV08) ADP-Glo Assay. Format: biochemical. Conditions: 0.15 nM WRN, 5 μM ATP, 0.1 nM DNA duplex, 15 min preincubation, 60 min at 25° C., pH 7.5, 1% DMSO; read-out: ADP-Glo_hWRN_IC50. The essentials: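 WRN 0.15 nM + cpd, 15 min 25 °C; add 5 μM ATP / 0.1 nM annealed DNA duplex; 60 min 25 °C; ADP-Glo stop, RLU. Buffer 20 mM Bicine pH 7.5, 1 mM MgCl2, 10 mM KCl, 1 mM TCEP. IC50, 4-parameter fit.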
(ADP-Glo turns the ADP formed in a reaction into a luminescent signal.)
`Cc1cccn1-c1ccc(CC(=O)N(Cc2nc(C3CC3)cs2)C2C=CS(=O)(=O)C2)c(F)c1` (centres unmarked) [I-60, N-[(4-cyclopropyl-1,3-thiazol-2-yl)methyl]-N-(1,1-dioxo-2,3-dihydro-1lambda6-thiophen-3-yl)-2-[2-fluoro-4-(2-methyl-1H-pyrrol-1-yl)phenyl]acetamide]: the IC50 was below 500 nM.
With `CC(C)(O)c1cc(CN(C(=O)Cc2ccc(-n3cccc3)cc2F)C2C=CS(=O)(=O)C2)ccn1` (centres unmarked) [I-61, N-(1,1-dioxo-2,3-dihydro-1lambda6-thiophen-3-yl)-2-[2-fluoro-4-(1H-pyrrol-1-yl)phenyl]-N-{[2-(2-hydroxypropan-2-yl)pyridin-4-yl]methyl}acetamide], the IC50 was below 500 nM.
As for `CCN(CC)C(=O)C(C(=O)N(Cc1ccnc(C(C)(C)O)c1)C1C=CS(=O)(=O)C1)c1ccc(-c2ccc(F)c(F)c2)cc1F` (centres unmarked) [I-62, N′-(1,1-dioxo-2,3-dihydro-1lambda6-thiophen-3-yl)-N,N-diethyl-N′-{[2-(2-hydroxypropan-2-yl)pyridin-4-yl]methyl}-2-{3,3′,4′-trifluoro-[1,1′-biphenyl]-4-yl}propanediamide], the IC50 is below 500 nM.
Under `O=C(Cc1ccc(S(F)(F)(F)(F)F)cc1)N(Cc1ccncc1)C1C=CS(=O)(=O)C1` (centres unmarked) [I-63, N-(1,1-dioxo-2,3-dihydro-1lambda6-thiophen-3-yl)-2-[4-(pentafluoro-lambda6-sulfanyl)phenyl]-N-[(pyridin-4-yl)methyl]acetamide] stands below 500 nM; under `COc1cc(CN(C(=O)Cc2ccc(-c3ccc(F)c(F)c3)cc2F)C2C=CS(=O)(=O)C2)ccn1` (centres unmarked) [I-64, N-(1,1-dioxo-2,3-dihydro-1lambda6-thiophen-3-yl)-N-[(2-methoxypyridin-4-yl)methyl]-2-{3,3′,4′-trifluoro-[1,1′-biphenyl]-4-yl}acetamide], below 500 nM.
Under `Cc1cccn1-c1ccc(CC(=O)N(Cc2ccnc(C3(O)CCC3)c2)C2C=CS(=O)(=O)C2)c(F)c1` (centres unmarked) [I-65, N-(1,1-dioxido-2,3-dihydrothiophen-3-yl)-2-(2-fluoro-4-(2-methyl-1H-pyrrol-1-yl)phenyl)-N-((2-(1-hydroxycyclobutyl)pyridin-4-yl)methyl)acetamide] stands below 500 nM; under `Cc1cccn1-c1ccc(CC(=O)N(Cc2ccnc(C(C)(C)O)c2)C2C=CS(=O)(=O)C2)c(F)c1` (centres unmarked) [I-66, N-(1,1-dioxo-2,3-dihydro-1lambda6-thiophen-3-yl)-2-[2-fluoro-4-(2-methyl-1H-pyrrol-1-yl)phenyl]-N-{[2-(2-hydroxypropan-2-yl)pyridin-4-yl]methyl}acetamide], below 500 nM; under `Cc1cccn1-c1ccc(CC(=O)N(Cc2ccnc(OCC(F)(F)F)c2)C2C=CS(=O)(=O)C2)c(F)c1` (centres unmarked) [I-67, N-(1,1-dioxo-2,3-dihydro-1lambda6-thiophen-3-yl)-2-[2-fluoro-4-(2-methyl-1H-pyrrol-1-yl)phenyl]-N-{[2-(2,2,2-trifluoroethoxy)pyridin-4-yl]methyl}acetamide], below 500 nM.
Under `COc1cc(CN(C(=O)Cn2cc(-c3ccc(F)cc3)cn2)C2C=CS(=O)(=O)C2)ccn1` (centres unmarked) [I-68, N-(1,1-dioxo-2,3-dihydro-1lambda6-thiophen-3-yl)-2-[4-(4-fluorophenyl)-1H-pyrazol-1-yl]-N-[(2-methoxypyridin-4-yl)methyl]acetamide] stands below 500 nM; under `COc1cc(CN(C(=O)Cc2ccc(-n3cccc3C)cc2F)C2C=CS(=O)(=O)C2)ccn1` (centres unmarked) [I-69, N-(1,1-dioxo-2,3-dihydro-1lambda6-thiophen-3-yl)-2-[2-fluoro-4-(2-methyl-1H-pyrrol-1-yl)phenyl]-N-[(2-methoxypyridin-4-yl)methyl]acetamide], below 500 nM.
As to `CC(C)(O)c1cc(CN(C(=O)Cc2ccc(-c3cccc(Cl)c3)cc2F)C2C=CS(=O)(=O)C2)ccn1` (centres unmarked) [I-70, 2-{3′-chloro-3-fluoro-[1,1′-biphenyl]-4-yl}-N-(1,1-dioxo-2,3-dihydro-1lambda6-thiophen-3-yl)-N-{[2-(2-hydroxypropan-2-yl)pyridin-4-yl]methyl}acetamide], the IC50 is below 500 nM.
The result for `COc1cc(CN(C(=O)C(OC)c2ccc(-c3ccc(F)cc3)cc2F)C2C=CS(=O)(=O)C2)ccn1` (centres unmarked) [I-71, 2-{3,4′-difluoro-[1,1′-biphenyl]-4-yl}-N-(1,1-dioxo-2,3-dihydro-1lambda6-thiophen-3-yl)-2-methoxy-N-[(2-methoxypyridin-4-yl)methyl]acetamide] reads below 500 nM; that for `Cc1cccn1-c1ccc(CC(=O)N(Cc2nc3ccccc3s2)C2C=CS(=O)(=O)C2)c(F)c1` (centres unmarked) [I-73, N-[(1,3-benzothiazol-2-yl)methyl]-N-(1,1-dioxo-2,3-dihydro-1lambda6-thiophen-3-yl)-2-[2-fluoro-4-(2-methyl-1H-pyrrol-1-yl)phenyl]acetamide], below 500 nM.
Under `COC(C(=O)N(Cc1nc(C2CC2)cs1)C1C=CS(=O)(=O)C1)c1ccc(S(F)(F)(F)(F)F)cc1` (centres unmarked) [I-74, N-[(4-cyclopropyl-1,3-thiazol-2-yl)methyl]-N-(1,1-dioxo-2,3-dihydro-1lambda6-thiophen-3-yl)-2-methoxy-2-[4-(pentafluoro-lambda6-sulfanyl)phenyl]acetamide] stands below 500 nM; under `CCN(C)C(=O)C(C(=O)N(Cc1ccnc(C(C)(C)O)c1)C1C=CS(=O)(=O)C1)c1ccc(-c2ccc(F)c(F)c2)cc1F` (centres unmarked) [I-75, N′-(1,1-dioxo-2,3-dihydro-1lambda6-thiophen-3-yl)-N-ethyl-N′-{[2-(2-hydroxypropan-2-yl)pyridin-4-yl]methyl}-N-methyl-2-{3,3′,4′-trifluoro-[1,1′-biphenyl]-4-yl}propanediamide], below 500 nM.
Under `CC(C)(O)c1cc(CN(C(=O)Cn2cc(-c3ccccc3)cn2)C2C=CS(=O)(=O)C2)ccn1` (centres unmarked) [I-76, N-(1,1-dioxo-2,3-dihydro-1lambda6-thiophen-3-yl)-N-{[2-(2-hydroxypropan-2-yl)pyridin-4-yl]methyl}-2-(4-phenyl-1H-pyrazol-1-yl)acetamide] stands below 500 nM; under `CC(C)(O)c1cc(CN(C(=O)C(F)c2ccc(-c3ccc(F)c(F)c3)cc2F)C2C=CS(=O)(=O)C2)ccn1` (centres unmarked) [I-77, N-(1,1-dioxo-2,3-dihydro-1lambda6-thiophen-3-yl)-2-fluoro-N-{[2-(2-hydroxypropan-2-yl)pyridin-4-yl]methyl}-2-{3,3′,4′-trifluoro-[1,1′-biphenyl]-4-yl}acetamide], below 500 nM.
As for `Cc1cccn1-c1ccc(CC(=O)N(Cc2ccnc3c2CCC3(C)O)C2C=CS(=O)(=O)C2)c(F)c1` (centres unmarked) [I-78, N-(1,1-dioxo-2,3-dihydro-1lambda6-thiophen-3-yl)-2-[2-fluoro-4-(2-methyl-1H-pyrrol-1-yl)phenyl]-N-({7-hydroxy-7-methyl-5H,6H,7H-cyclopenta[b]pyridin-4-yl}methyl)acetamide], the IC50 was below 500 nM.
`CC(C)(O)c1csc(CN(C(=O)Cc2ccc(-c3ccc(F)cc3)cc2F)C2C=CS(=O)(=O)C2)n1` (centres unmarked) [I-79, 2-(3,4′-difluoro-[1,1′-biphenyl]-4-yl)-N-(1,1-dioxido-2,3-dihydrothiophen-3-yl)-N-((4-(2-hydroxypropan-2-yl)thiazol-2-yl)methyl)acetamide]: the IC50 is below 500 nM.
Regarding `O=C(Cc1ccc(-c2ccc(F)cc2)cc1F)N(Cc1nc(C2CC2)cs1)C1C=CS(=O)(=O)C1` (centres unmarked) [I-80, N-[(4-cyclopropyl-1,3-thiazol-2-yl)methyl]-2-{3,4′-difluoro-[1,1′-biphenyl]-4-yl}-N-(1,1-dioxo-2,3-dihydro-1lambda6-thiophen-3-yl)acetamide], the IC50 is below 500 nM.
With `COC(C(=O)N(Cc1ccnc(C(C)(C)O)c1)C1C=CS(=O)(=O)C1)c1ccc(S(F)(F)(F)(F)F)cc1` (centres unmarked) [I-81, N-(1,1-dioxido-2,3-dihydrothiophen-3-yl)-N-((2-(2-hydroxypropan-2-yl)pyridin-4-yl)methyl)-2-methoxy-2-(4-(pentafluoro-λ^6-sulfaneyl)phenyl)acetamide], the IC50 was below 500 nM.
`CC(C)(O)c1cc(CN(C(=O)Cc2ncc(-c3ccc(F)c(F)c3)cc2F)C2C=CS(=O)(=O)C2)ccn1` (centres unmarked) [I-82, 2-[5-(3,4-difluorophenyl)-3-fluoropyridin-2-yl]-N-(1,1-dioxo-2,3-dihydro-1lambda6-thiophen-3-yl)-N-{[2-(2-hydroxypropan-2-yl)pyridin-4-yl]methyl}acetamide]: the IC50 is below 500 nM.
Under `O=C(Cc1ccc(-n2cccc2)cc1)N(Cc1nc(C2CC2)cs1)[C@@H]1C=CS(=O)(=O)C1` [I-83, N-[(4-cyclopropyl-1,3-thiazol-2-yl)methyl]-N-[(3R)-1,1-dioxo-2,3-dihydro-1lambda6-thiophen-3-yl]-2-[4-(1H-pyrrol-1-yl)phenyl]acetamide] stands below 500 nM; under `CCOc1cc(CN(C(=O)Cc2ccc(-c3ccc(F)cc3)cc2F)C2C=CS(=O)(=O)C2)ccn1` (centres unmarked) [I-84, 2-{3,4′-difluoro-[1,1′-biphenyl]-4-yl}-N-(1,1-dioxo-2,3-dihydro-1lambda6-thiophen-3-yl)-N-[(2-ethoxypyridin-4-yl)methyl]acetamide], 500 to 5000 nM.
Under `COc1cc(CN(C(=O)Cn2cc(-c3ccc(Cl)cc3)cn2)C2C=CS(=O)(=O)C2)ccn1` (centres unmarked) [I-85, 2-[4-(4-chlorophenyl)-1H-pyrazol-1-yl]-N-(1,1-dioxo-2,3-dihydro-1lambda6-thiophen-3-yl)-N-[(2-methoxypyridin-4-yl)methyl]acetamide] stands below 500 nM; under `COc1cc(CN(C(=O)C(OC)c2ccc(-c3ccc(F)cc3)cc2)C2C=CS(=O)(=O)C2)ccn1` (centres unmarked) [I-86, N-(1,1-dioxo-2,3-dihydro-1lambda6-thiophen-3-yl)-2-{4′-fluoro-[1,1′-biphenyl]-4-yl}-2-methoxy-N-[(2-methoxypyridin-4-yl)methyl]acetamide], 500 to 5000 nM.
